Laboratory results taken from publication PMC12881681 (Molecular Pharmacology, 2025).
Several values for one entry are separate records, joined by “and”; a condition that tells them apart may be missing. Equal entries are not always repeated. Where two headings read alike, the source gives them in different places.

What was measured:
[1] = biological target: T1, human liver cytosolic AOX1 (Homo sapiens, UniProt Q06278); experiment: Enzyme inactivation of human liver cytosolic AOX1-mediated carbazeran 4-oxidation; conditions: for kinact: human liver cytosol 100 μg, carbazeran 15 μM, 37 °C; for Experimental Log KI: log of KI
T1 sequence (Q06278 1-1338): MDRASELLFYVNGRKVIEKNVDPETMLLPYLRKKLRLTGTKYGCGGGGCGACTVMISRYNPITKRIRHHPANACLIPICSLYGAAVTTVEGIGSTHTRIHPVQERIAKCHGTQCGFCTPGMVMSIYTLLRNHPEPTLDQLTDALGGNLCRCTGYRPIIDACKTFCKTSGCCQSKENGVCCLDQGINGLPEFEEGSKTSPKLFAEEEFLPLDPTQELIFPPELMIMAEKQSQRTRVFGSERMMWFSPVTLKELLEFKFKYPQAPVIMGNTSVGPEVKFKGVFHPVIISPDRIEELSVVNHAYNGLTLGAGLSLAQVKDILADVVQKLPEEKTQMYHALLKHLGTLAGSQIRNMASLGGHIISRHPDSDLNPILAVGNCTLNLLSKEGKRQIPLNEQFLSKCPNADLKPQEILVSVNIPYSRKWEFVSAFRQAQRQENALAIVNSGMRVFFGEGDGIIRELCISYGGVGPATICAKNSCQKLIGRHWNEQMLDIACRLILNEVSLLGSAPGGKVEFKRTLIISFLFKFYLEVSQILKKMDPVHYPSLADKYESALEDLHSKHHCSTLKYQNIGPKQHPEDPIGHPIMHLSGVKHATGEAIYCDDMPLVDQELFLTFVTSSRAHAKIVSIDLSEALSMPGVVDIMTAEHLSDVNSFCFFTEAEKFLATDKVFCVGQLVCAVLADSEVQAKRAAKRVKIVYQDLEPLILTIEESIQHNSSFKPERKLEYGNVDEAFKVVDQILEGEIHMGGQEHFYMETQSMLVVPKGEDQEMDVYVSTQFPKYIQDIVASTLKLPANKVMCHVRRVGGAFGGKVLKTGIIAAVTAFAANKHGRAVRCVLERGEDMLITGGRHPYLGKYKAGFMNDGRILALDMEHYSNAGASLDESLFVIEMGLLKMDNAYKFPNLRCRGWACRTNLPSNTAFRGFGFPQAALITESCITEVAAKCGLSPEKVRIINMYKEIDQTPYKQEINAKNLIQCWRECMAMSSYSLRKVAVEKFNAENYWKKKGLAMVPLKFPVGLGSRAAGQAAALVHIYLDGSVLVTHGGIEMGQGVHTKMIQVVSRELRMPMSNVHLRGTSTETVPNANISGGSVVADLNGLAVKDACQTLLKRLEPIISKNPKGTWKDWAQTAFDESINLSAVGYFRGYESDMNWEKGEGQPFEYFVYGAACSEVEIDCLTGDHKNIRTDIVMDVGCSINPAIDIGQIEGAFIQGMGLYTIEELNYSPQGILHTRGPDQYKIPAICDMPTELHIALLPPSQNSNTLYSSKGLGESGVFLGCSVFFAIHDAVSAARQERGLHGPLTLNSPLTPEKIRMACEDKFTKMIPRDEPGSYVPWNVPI
Description: Carbazeran 4-oxidation and O^6-benzylguanine 8-oxidation were deployed as AOX1-selective catalytic markers.[27] The assay conditions (amount of cytosolic protein, incubation time, and substrate concentration) for carbazeran 4-oxidation catalyzed by human recombinant AOX1 and human/rat/mouse liver cytosols were optimized previously.[7]^,[25]
Enzymatic reaction was initiated by adding human liver cytosol (100 μg). After the specified preincubation duration, an aliquot (10 μL) of the preincubation mixture was transferred to 190 μL of a prewarmed (for 3 minutes at 37 °C) secondary incubation mixture (total volume of 200 μL) containing potassium phosphate buffer and carbazeran (15 μM) or O^6-benzylguanine (150 μM), which yielded a 20-fold dilution of the primary incubation mixture. The secondary incubation mixture was incubated for 5 minutes at 37 °C before the enzymatic reaction was terminated with 200 μL of ice-cold acetonitrile containing carbazeran-d4 (2.5 nM final concentration; internal standard for 4-oxo-carbazeran) or tolbutamide (25 nM final concentration; internal standard for 8-oxo-O^6-benzylguanine). Each sample was immediately mixed by vortex, placed on ice, centrifuged at 16,000g for 15 minutes at 4 °C and stored at –30 °C until ultra-high performance liquid chromatography–tandem mass spectrometry (UPLC-MS/MS) analysis. For enzyme inactivation assays involving rat and mouse liver cytosol and recombinant AOX1 assays, the experimental conditions were similar to those of human liver cytosol, except that the amount of cytosolic protein was 200 μg (rat) and 150 μg (mouse), respectively, and the incubation time of the secondary incubation mixture was 60 minutes. For the recombinant AOX1 enzyme assay, the amount of enzyme was 100 μg, the incubation time of the secondary incubation mixture was 15 minutes, and the total volume of the primary and secondary incubation mixtures was reduced to 100 μL.
Preliminary experiments were performed to optimize the incubation time and concentration of an inactivator to ensure a log-linear decrease in enzyme activity over time and that the kobs versus inactivator concentration plot reaches a plateau for the determination of the kinact value. The observed first-order rate constant for inactivation (kobs), maximal inactivation rate constant (kinact), half-maximal inactivation concentration (KI), and the time required for half of the enzyme molecules to be inactivated (t1/2) were calculated as described in our previous publication.[28]

[2] = Rapid equilibrium dialysis, nonspecific binding to human liver cytosol
Description: Nonspecific binding of test chemicals to human liver cytosol (100 μg) was determined using a Rapid Equilibrium Dialysis Kit (Thermo Fisher Scientific), as described in detail in our previous publication.[27]
MOLPHA- D-25- 00208 Supplemental Materials. Kweh et al. Mol Pharmacol […]
inhibition constants (Ki,u ) for the inhibition of human liver cytosolic carbazeran 4-oxidation A mixture containing a test chemical (10 µM; dissolved in a final concentration of 0.5% v/v DMSO) and human liver cytosol (100 µg total cytosolic protein) were dialyzed as described under Materials and Methods. Chemical concentr ation in each chamber wa s quantified by UPLC-MS/MS. Data are exp ressed as mean ± S.D. of three independent experiments. […]
a, K I,u = f u × K I, where fu was calcul ated from 10 µ M of chemicals in human liver cytosol.

[3] = half-maximal inactivation concentration, human liver cytosol, carbazeran 4-oxidation
[4] = human liver cytosol, 10 μM (raloxifene 0.02 μM), 30-minute preincubation
[5] = human liver cytosol, carbazeran 4-oxidation
[6] = human liver cytosol, inactivator 1.5 μM alone, 6-minute preincubation
[7] = read-out: KI,u, unbound, KI,u = fu × KI, fu at 10 μM in human liver cytosol
[8] = 10 μM, human liver cytosol 100 μg protein, 4-hour dialysis

Row | SMILES | Ki [1, 3] [µM] | kinact [1] | decrease in carbazeran 4-oxidation [1, 4] [%] | Inactivation t1/2 [1, 5] | kinact/KI [1, 5] | decrease in carbazeran 4-oxidation [1, 6] | Experimental Log KI ([1]; human liver cytosol) | Ki [1, 7] [µM] | Fraction Unbound (fu) [2, 8] | KI, decrease compared with erlotinib ([1]; Table 1 values) [%] | kinact, decrease compared with erlotinib ([1]; Table 1 values) [%] | kinact/KI ratio, decrease compared with erlotinib ([1]; Table 1 values) [%] | t1/2, fold longer compared with erlotinib ([1]; Table 1 values) | Fraction Unbound (fu) ([2]; human, cytosol) | KI (inactivation) ([1]; read-out: KI, half-maximal inactivation concentration, human liver cytosol, carbazeran 4-oxidation) [µM] | KI, fold higher compared with erlotinib ([1]; Table 1 values) [fold] | kinact, fold lower compared with erlotinib ([1]; Table 1 values) | kinact/KI ratio, fold lower compared with erlotinib ([1]; Table 1 values) [fold] | decrease in carbazeran 4-oxidation ([1]; human liver cytosol, 6 minutes of preincubation (data not shown)) | fraction unbound at 4 h, 10 μM ([2]; human, human liver cytosol)
1 | C#Cc1cccc(Nc2ncnc3cc(OCCO)c(OCCO)cc23)c1 [O-Didesmethylerlotinib, O-didesmethylerlotinib] | 1.98 ± 0.2 | 1.00 ± 0.04 min^–1 | 99 | 0.70 ± 0.03 min | 0.50 ± 0.03∗∗ min^–1μM^–1 | 90% and 89% and 92% | 0.30 ± 0.04 μM | 1.67 ± 0.17 | 0.84 | – | – | – | – | – | – | – | – | – | – | –
2 | C#Cc1cc(Nc2ncnc3cc(OCCOC)c(OCCOC)cc23)ccc1C [4′-Methylerlotinib, 4′-methylerlotinib] | 1.03 ± 0.27 | 0.14 ± 0.03∗∗∗ min^–1 | – | 5.29 ± 1.19∗∗∗ min | 0.13 ± 0.02∗∗∗ min^–1μM^–1 | – | – | 0.75 ± 0.2 | – | 62 | 88 | 70 | 8.5 fold | 0.73 ± 0.05 | – | – | – | – | – | –
3 | C#Cc1cccc(Nc2ncnc3cc(OCCOC)c(OCCO)cc23)c1 [O-Desmethylerlotinib, O-desmethylerlotinib] | – | 1.05 ± 0.06 min^–1 | 99 | 0.66 ± 0.04 min | 0.21 ± 0.04∗∗∗ min^–1μM^–1 | 69% and 79% and 80% | 0.71 ± 0.11∗ μM | 4.41 ± 1.04 | 0.84 | – | – | – | – | – | 5.23 ± 1.24 | – | – | – | – | –
4 | C=Cc1cccc(Nc2ncnc3cc(OCCOC)c(OCCOC)cc23)c1 [3-Vinylerlotinib, 3-vinylerlotinib] | 30.6 ± 9.6 | 0.33 ± 0.07∗∗∗ min^–1 | 84 | 2.14 ± 0.47∗ min | – | – | 1.5 ± 0.15∗∗∗ μM | 23.9 ± 7.53 | – | – | – | – | approximately 3.5 fold | 0.78 ± 0.04 | – | ~11 | approximately 3.5 fold | ~43 | did not decrease | –
5 | C#Cc1cccc(Nc2ncnc3cc(OCCOC)c(OCCOC)cc23)c1 [Erlotinib] | – | – | – | 0.62 ± 0.09 min | – | – | – | – | – | – | – | – | – | – | – | – | – | – | – | 0.56
6 | C#Cc1cccc(Nc2nc(C)nc3cc(OCCOC)c(OCCOC)cc23)c1 [2-Methylerlotinib, 2-methylerlotinib] | 4 ± 0.27 | 0.84 ± 0.10∗∗ min^–1 | – | 0.83 ± 0.11 min | 0.21 ± 0.01∗∗∗ min^–1μM^–1 | – | – | 2.04 ± 0.14 | – | – | 26 | 51 | 1.3 fold | 0.51 ± 0.07 | – | 1.5 | – | – | – | –
